“Also recorded” adds a separate entry of the source.
What was measured:
TNFα [1] = assay: TNFα mRNA in LPS/IFNγ-stimulated primary astrocytes; type: cell-based, rat
Experimental: (§1) A 20-mer antisense oligonucleotide of the following sequence (5′-CGCTTGAGCGCAGACATCTT-3′, SEQ ID NO:1) targeted against rat lactosylceramide synthase (GalT-2) were synthesized by Integrated DNA Technology. A scrambled oligonucleotide (5′-CTGATATCGTCGATATCGAT-3′, SEQ ID NO:2) was also synthesized and used as control. Cells were counted and plated a day before transfection and the following day were treated with Oligofectamine (Invitrogen)-oligonucleotide complexes (200 nM oligo) under serum free conditions. 48 h following transfection, the protein levels of GalT-2 were analyzed using polyclonal antibodies raised against rat GalT-2 (Abjent Inc., CA). The transfected cells were stimulated with LPS/IFNγ (1 μg/ml) and levels of nitric oxide were checked 24 h following stimulation. iNOS mRNA and protein levels were checked at 6 h and 24 h, respectively, following stimulation of transfected cells.
(§2) 5 μg total RNA was treated with 2 U DNAse I (bovine pancreas, Sigma) for 15 min at room temperature in 18 μl volume containing 1×PCR buffer and 2 mM MgCl2. It was then inactivated by incubation with 2 μl of 25 mM EDTA at 65° C. for 15 min. 2 μl of random primers were added and annealed to the RNA according to the manufacturer's protocol. cDNA was synthesized in a 50 μl reaction containing 5 μg of total RNA and 50-100 U reverse transcriptase by incubating the tubes at 42° C. for 60 min. […]

IL-1β = IL-1β mRNA in LPS/IFNγ-stimulated primary astrocytes; type: cell-based, rat
Experimental: as §1, §2

IκB = assay: Phosphorylated IκB immunoblot of cytoplasmic extract; type: cell-based, rat; conditions: LPS/IFNγ
Experimental: For iNOS protein, the cells were washed with cold Tris buffered saline (TBS; 20 mM Trizma base, and 137 mM NaCl, pH 7.5), lysed in 1×SDS sample loading buffer (62.5 mM Trizma base, 2% w/v SDS, 10% glycerol), following sonication and centrifugation at 15,000×g for 5 min, the supernatant was used for the iNOS western immunoblot assay. The protein concentration of samples was determined with the detergent compatible protein assay reagent (Bio-Rad Laboratories, CA) using bovine serum albumin (BSA) as the standard. Sample was boiled for 3 min with 0.1 volumes of 10% β-mercaptoethanol and 0.5% bromophenol blue mix. Fifty μg of total cellular protein was resolved by electrophoresis on 8 or 12% polyacrylamide gels, electro-transferred to polyvinylidene difluoride (PVDF) filter and blocked with Tween 20 containing Tris-buffered saline (TBST; 10 mM Trizma base-pH 7.4, 1% Tween 20, and 150 mM NaCl) with 5% skim milk. […] The membranes were detected by autoradiography using ECL-plus (Amersham Pharmacia Biotech) after washing with TBST buffer.

rat SCI model = assay: BBB locomotor rating, rat SCI model; type: in vivo
From the text: Sprague-Dawley female rats (225-250 g weight) were purchased (Harlan laboratories, Durham, N.C.) for induction of SCI. All rats were given water and food pellets ad libitum and maintained in accordance with the ‘Guide for the Care and Use of Laboratory Animals’ of the US Department of Health and Human Services (National Institutes of Health, Bethesda, Md., USA). The inventors have used a clinically relevant weight-drop device for the induction of SCI in rats as described earlier (Gruner, 1992). Briefly, rats were anesthetized by intraperitoneal (i.p.) administration of ketamine (80 mg/kg) plus xylazine (10 mg/kg) followed by laminectomy at T12. While the spine was immobilized with a stereotactic device, injury (30 g/cm force) was induced by dropping a weight of 5 gm from a height of 6 cm onto an impounder gently placed on the spinal cord. Sham operated animals underwent laminectomy only. Upon recovery from anesthesia, animals were evaluated neurologically and monitored for food and water intake. However, no prophylactic antibiotics or analgesics were used in order to avoid their possible interactions with the experimental therapy of SCI.
Assessment of neurological (functional) recovery was performed by an open-field test using the 21-point Basso, Beattie, Bresnahan (BBB) locomotor rating scale (Basso et al., 1996) until Day 15 post-SCI. […]

TNFα [2] = assay: TNFα expression at the lesion epicenter following SCI
[3] = tested on: primary cultured rat neocortical explants; conditions: cited from earlier work
GFAP = GFAP expression (reactive astrogliosis) at the lesion epicenter following SCI
[4] = tested on: rat aortic vascular smooth muscle cells; conditions: cited from earlier work
ERK1/2 = ERK1/2 activation (phospho-ERK1/2 immunoblot) in primary astrocytes; type: cell-based, rat
Experimental: For iNOS protein, the cells were washed with cold Tris buffered saline (TBS; 20 mM Trizma base, and 137 mM NaCl, pH 7.5), lysed in 1×SDS sample loading buffer (62.5 mM Trizma base, 2% w/v SDS, 10% glycerol), following sonication and centrifugation at 15,000×g for 5 min, the supernatant was used for the iNOS western immunoblot assay. The protein concentration of samples was determined with the detergent compatible protein assay reagent (Bio-Rad Laboratories, CA) using bovine serum albumin (BSA) as the standard. Sample was boiled for 3 min with 0.1 volumes of 10% β-mercaptoethanol and 0.5% bromophenol blue mix. Fifty μg of total cellular protein was resolved by electrophoresis on 8 or 12% polyacrylamide gels, electro-transferred to polyvinylidene difluoride (PVDF) filter and blocked with Tween 20 containing Tris-buffered saline (TBST; 10 mM Trizma base-pH 7.4, 1% Tween 20, and 150 mM NaCl) with 5% skim milk. After incubation with antiserum against iNOS (BD PharMingen, CA), rat GalT-2 (Abjent Inc., CA), H-Ras (Upstate Biotechnology, CA), GFAP (Santa Cruz Biotech, CA), or phospho-specific ERK1/2 (Cell signaling Tech Inc., MA), or pIκ-B (Signal Transduction), in PVDF buffer for 2 h at room temperature, the filters were washed 3 times with TBST buffer and then incubated with horseradish peroxidase conjugated anti-rabbit or mouse IgG for 1 h. The membranes were detected by autoradiography using ECL-plus (Amersham Pharmacia Biotech) after washing with TBST buffer.

[5] = LPS/IFNγ-stimulated astrocytes, 48 h after transfection

Compound: AS GalT-2 oligonucleotides: 20-mer antisense oligonucleotide 5′-CGCTTGAGCGCAGACATCTT-3′, SEQ ID NO:1, against rat lactosylceramide synthase (GalT-2) (antisense CGCTTGAGCGCAGACATCTT; chemistry not given here)
- TNFα mRNA expression (TNFα [1]; [5]): suppressed
- IL-1β mRNA expression (IL-1β; [5]): suppressed

Compound: CCCCCCCCCC(=O)NC(CN1CCOCC1)C(O)c1ccccc1.Cl [PDMP, D-threo-1-Phenyl-2-decanoylamino-3-morpholino-1-propanol.HCl]
- Phosphorylation of IκB (IκB; in the presence of PDMP): Decreased
- BBB score (rat SCI model; Day 3 post-SCI, PDMP 20 mg/kg i.p. at 10 min, 24 h, 48 h, 72 h): 6.9±0.2
- BBB score (rat SCI model; Day 15 post-SCI, PDMP treatment stopped at Day 3): 13.9±0.1
- TNFα mRNA levels (TNFα [2]; 1 h post-SCI): markedly inhibited
- TNFα protein levels, immunofluorescence (TNFα [2]; post-SCI (sections extracted 1 h)): significantly suppressed
- Neurite outgrowth [3]: inhibited
- GFAP, double immunofluorescence (GFAP; 24 h post-SCI): significantly reduced; also recorded: significantly attenuated
- GFAP mRNA and protein expression (GFAP; PDMP 20 mg/kg post-SCI): effectively attenuated
- IL-1β stimulated nitric oxide release [4]: increased
- LPS/IFNγ-induced phosphorylation of ERK1/2 (ERK1/2; pretreated 0.5 h, LPS/IFNγ 20 min): inhibited
- TNFα-induced ERK1/2 phosphorylation (ERK1/2; pretreated 0.5 h, TNFα 20 min): inhibited

Compound: Lactosylceramide [LacCer]
- Reversal of AS-mediated inhibition of TNFα expression (TNFα [1]; exogenous LacCer, LPS/IFNγ): reversed
- Levels of phosphorylated IκB when LacCer was added to PDMP (IκB; PDMP plus LacCer): increased
- Reversal of AS-mediated inhibition of IL-1β expression (IL-1β; exogenous LacCer, LPS/IFNγ): reversed
- Reversal of LY-mediated inhibition of TNFα-mediated ERK1/2 activation (ERK1/2; LY 30 μM plus LacCer 10 μM): bypassed
- Reversal of PD98059-mediated inhibition of TNFα-induced ERK1/2 activity (ERK1/2; exogenous LacCer): not
- Reversal of PDMP-mediated inhibition of LPS/IFNγ-induced ERK1/2 phosphorylation (ERK1/2; exogenous LacCer): reversed
- Reversal of PDMP-mediated inhibition of TNFα-induced ERK1/2 activity (ERK1/2; exogenous LacCer): reverse
